Reference: publication PMC5082792 (PLoS ONE, 2016)

How the values were obtained:
HIV = test system: HIV; parameters: method as in PMID 17617270, PMID 17617271; details: treatment-experienced patients, with optimized background regimen including DRV/r 600/100 mg BID; cited from earlier work
[1] = cited from earlier work
[2] = addition of ETR 200mg bid to DRV/r 600/100mg bid; cited from earlier work
[3] = DRV plasma trough concentration ([DRV]plasma) by UPLC-DAD in HIV-1 infected patients, by CYP3A5 genotype-based expression status; format: in vivo, human
Excerpt: After a clinical assessment and in addition to the samples routinely collected for the clinical follow-up (viral load, CD4 cell count), two more blood samples were drawn immediately before drug intake, with the highest timing precision conceivable given the ambulatory context of the study recruitment. […] In order to obtain a post-intake delay as close as possible to the trough sampling time, each patient was personally contacted by phone a few days before the study visit to ensure not taking the medication prior to blood sampling.
Plasma was then collected and stored at -20°C until the day of quantification.
Genotype and allele frequencies were calculated and deviations from Hardy-Weinberg equilibrium (HWE) were evaluated using exact tests.
The patients were also classified into CYP3A5 expressors (CYP3A5*1 allele carriers) and CYP3A5 non-expressors (CYP3A5*3 homozygous).

Row | decrease of plasma drug concentration by the drug-drug interaction ([3]; CYP3A5 expressors versus non-expressors, DRV with ETR) | mean [DRV]plasma (geometric mean trough concentration) ([3]; overall, all 135 patients) | [DRV]plasma of a single patient ([3]; person, CYP3A5 expressor, DRV/r and ETR, detectable viral load) | DRV plasma concentration (geometric mean) ([3]; subgroup DRV/r 600/100mg BID plus ETR n = 13, CYP3A5 expressors n = 5) | DRV plasma concentration (geometric mean) ([3]; subgroup DRV/r 600/100mg BID plus ETR n = 13, CYP3A5 non-expressors n = 8) | DRV plasma concentration (geometric mean) ([3]; subgroup DRV/r 800/100mg QD, CYP3A5 expressors n = 41) | SMILES | virological efficacy, immunological recovery and clinical progression versus placebo (HIV) | decrease of ETR exposure ([1]; DRV/r with ETR 100mg twice daily compared to ETR alone) | increase of DRV AUC [2] | DRV PK parameters (in particular Ctrough and Cmax) ([1]; DRV/r 600/100mg bid with ETR 100mg or 200mg bid, healthy volunteers) | DRV plasma concentration (geometric mean) ([3]; subgroup DRV/r 600/100mg BID, CYP3A5 expressors n = 19) | DRV plasma concentration (geometric mean) ([3]; subgroup DRV/r 600/100mg BID, CYP3A5 non-expressors n = 23) | DRV plasma concentration (geometric mean) ([3]; subgroup DRV/r 800/100mg QD, CYP3A5 non-expressors n = 52)
1 |  |  |  |  |  |  | Cc1cc(C#N)cc(C)c1Oc1nc(Nc2ccc(C#N)cc2)nc(N)c1Br [ETR, Etravirine] | superiority | 37% |  |  |  |  | 
2 | more than 55% | 1805 ng/mL | 652 ng/mL | • 1486ng/ml • (CI95%:725–3044) • n = 5 | • 3141ng/ml • (CI95%: 2042–4831) • n = 8 | • 1693ng/ml • (CI95%:1314–2182) • n = 41 | CC(C)CN(C[C@@H](O)[C@H](Cc1ccccc1)NC(=O)O[C@H]1CO[C@H]2OCC[C@H]21)S(=O)(=O)c1ccc(N)cc1 [DRV, Darunavir] |  |  | 14% | unchanged | • 2411 • (CI95%: 1895–3067) • n = 19 ng/ml | • 2430 • (CI95%: 1817–3249) • n = 23 ng/ml | • 1498ng/ml • (CI95%: 1227–1828) • n = 52
